Measurements taken from patent publication US10912761B2, “Methods and compositions involving RAD51 inhibitors” (The University of Chicago, priority 2012, dated 2021).
Entries after “also recorded” stand apart in the source; their conditions may differ. Blank lines part the entries; values can stand above or below the compound they belong to.

What was measured:
[1] = tested on: HR repair in HEK293 cells (DR-GFP reporter); assay: Quantification of HR efficiency in DR-GFP reporter cells; assay type: cell-based, human; settings: 24 hours
Method: (§1) FIG. 3. Relative DNA repair efficiencies. […] Reporter-containing HEK293 cells were electroporated with an I-SceI endonuclease-expressing plasmid, incubated with compounds as indicated for 24 hours, and subjected to FACS analysis 24 hours thereafter. […] The reporter construct that measures HR repair consists of two non-functional copies of green fluorescence protein (GFP), one of which is interrupted by an I-SceI endonuclease site. Induction of a DNA break at the I-SceI site can lead to repair by homologous gene conversion that generates a functional copy of GFP (Pierce et al., 1999). A second parallel assay makes use of cells that contain a different reporter that measures single-strand annealing (SSA), which is an alternative method of re-ligating DNA when HR cannot be completed. SSA efficiency is known to be elevated in situations where RAD51 function has been disrupted (Mansour et al., 2008, Stark et al., 2004, and Bennardo et al., 2008). […] HEK293 cells stably transfected with the DR-GFP or SA-GFP reporters were provided by Jeremy Stark (Bennardo et al., 2008). 0.5-1.0×10^7 cells at 80% confluence were electroporated with 30-60 μg pCβASce (or pCAGGS) in 4 mm cuvettes, using the following settings: 240-350 V, 975 μF. […] Compounds were removed and cells were incubated for an additional 24 hours in normal media, following which they were analyzed with a Becton-Dickinson FACScan. […]

[2] = Glutathione stability experiments (HPLC); assay type: physicochemical; settings: L-glutathione 5 mol equiv, DMSO, 37° C., hourly HPLC; up to 24 hours
Method: FIG. 1. Reaction of RI-1, RI-2, and 9b with glutathione. Glutathione is a tripeptide that contains a nucleophilic sulfhydryl group. Glutathione may react irreversibly with a Michael acceptor compound containing a suitable leaving group at the 4-position.
Compound (10 mg) and L-glutathione (5 mol equiv) were placed in a round-bottomed flask under argon and dissolved in DMSO (1 mL). The reaction was heated to 37° C. and stirred. Aliquots of the reaction mixture were removed every hour, including one at t=0 min, and analyzed by HPLC. Ratio of substrate and glutathione adduct was recorded and the expected glutathione adduct was then identified using mass spectrometry

[3] = tested on: SSA in HEK293 cells (SA-GFP reporter); assay: Quantification of SSA efficiency in SA-GFP reporter cells; assay type: cell-based, human; settings: 24 hours
Method: as §1

human RAD51 protein [4] = biological target: T1, human RAD51 protein (Homo sapiens, UniProt Q06609); assay: FP-based DNA binding assay (RAD51 binding to fluorescently labeled ssDNA); assay type: biochemical; parameters: made in house; settings: for time dependence of inhibitory activity on the DNA binding activity of RAD51: compound added after the protein has been released from the beads (FIG. 2B)
T1 sequence (Q06609 1-339): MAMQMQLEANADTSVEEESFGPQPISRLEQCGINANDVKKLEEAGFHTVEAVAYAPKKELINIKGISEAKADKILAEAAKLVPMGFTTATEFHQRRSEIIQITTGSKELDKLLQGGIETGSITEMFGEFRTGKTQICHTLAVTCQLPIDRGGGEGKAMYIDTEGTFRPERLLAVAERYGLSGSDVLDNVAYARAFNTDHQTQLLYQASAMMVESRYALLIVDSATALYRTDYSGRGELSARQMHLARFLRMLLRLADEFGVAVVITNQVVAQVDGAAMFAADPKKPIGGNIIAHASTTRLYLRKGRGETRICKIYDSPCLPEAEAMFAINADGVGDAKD
Method: The synthesized compounds were tested for biological activity in a two-stage manner. They were first evaluated for their ability to inhibit the binding of human RAD51 protein to ssDNA. This primary assay utilizes a fluorescence polarization (FP) based method that involves incubation of purified RAD51 protein with oligonucleotides, which are end-labeled with a fluorescent tag. The binding of RAD51 to this substrate ssDNA is quantified as a function of polarization of light emitted by the fluorescent tag. Chemical analogs were then tested further using secondary cell-based assays. Since cell lethality from RI-1 is thought to be a function of cellular RAD51 inhibition for RI-1, LD50 values were used as a surrogate measurement of in vivo activity against RAD51 in cells. This cell-based assay was also simultaneously utilized to evaluate for compound-induced sensitization of cells to the cross-linking chemotherapeutic drug MMC, thereby confirming that toxic effects are secondary to HR inhibition.
Human RAD51 protein was prepared as previously described (Budke et al., 2012). RAD51 was incubated with 100 nM (nucleotide concentration) of a 45-mer oligo-dT 5′ Alexa 488 end-labeled substrate. Binding was measured as a function of fluorescence polarization (FP) of the Alexa 488 tag. 50 μl reactions were performed in 20 mM HEPES, pH 7.5, 2 mM ATP, 10 mM MgCl2, 30 mM NaCl, 2% glycerol, 250 μM BSA, and 4% DMSO. Black polystyrene flat-bottom 384-well reaction plates were read using a Tecan Infinite F200 Pro plate reader, equipped with 485(20)/535(25) FP filters. For experiments used to determine IC50 values, RAD51 concentrations (typically 190-290 nM) were selected to generate FP signal of 50-80% maximum in the absence of any inhibitory compound. Reported IC50 values represent the mean result of at least three replicate wells, and reported errors connote standard deviation.

human RAD51 protein [5] = biological target: T1, human RAD51 protein; assay: DNA binding competition assay: bead-immobilized RAD51 treated with compound, washed, cleaved, tested by FP (reversible vs. irreversible inhibition); settings: washed extensively, protein cleaved from beads (FIG. 2C)
Method: Reversible vs. irreversible inhibition of RAD51 by compound was tested by incubating compounds with RAD51 while still attached to beads and prior to washing. […] Reversible vs. irreversible inhibition of RAD51. Biotinylated RAD51 was immobilized on streptavidin polyacrylamide beads. The RAD51-coated beads were incubated with compound and subsequently washed extensively to remove any compound that was not covalently attached. The treated protein was subsequently cleaved from the beads and tested for DNA binding activity using our standard FP-based assay.
Tagged RAD51 was immobilized on streptavidin-conjugated polyacrylamide beads (Ultralink, Pierce) and incubated for 30 min at 37° C. with candidate compounds in 20 mM HEPES, pH 7.5, 30 mM NaCl, 2% glycerol, 4% DMSO. The polyacrylamide beads were then washed twice with ice-cold wash buffer (20 mM Tris-HCl, pH 8.0, 300 mM NaCl) containing 4% DMSO and then once with ice-cold wash buffer without DMSO. RAD51 protein was subsequently eluted from beads with TEV protease (gift from Phoebe Rice) and analyzed for DNA binding activity using the above FP-based DNA binding assay.

immortalized human cells = assay: MMP-1-60 toxicity to immortalized human cells with or without pre-incubation in media; assay type: cell-based; settings: 4 hours of pre-incubation with tissue culture media vs. no pre-incubation
Method: FIGS. 6A-6B: A. ssDNA binding activity of RAD51 in response to RAD51 antagonists. […] B. MMP-1-60 toxicity to immortalized human cells.
HEK293 cells were plated into 96-well tissue culture plates at a density of 300 cells per well in the presence or absence of 50 nM MMC (Ben Venue Laboratories) for 24 hours at 37° C., 5% CO2. Media was subsequently replaced with fresh media containing 0.5% DMSO plus a candidate compound for an additional 24 hours. Compounds were then removed, and cultures were allowed to grow to a 50-70% confluence. Average survival from at least three replicates was measured using CellGlo reagent (Promega) or via a previously described sulforhodamine B method (Jayathilaka et al., 2008).

HEK293 cells = assay: Cell toxicity assay: sensitization to MMC; assay type: cell-based, human; settings: 24 hours MMC, then 24 hours compound, 5-7 days drug-free
From the text: Cells were then allowed to grow in drug-free media for an additional 5-7 days. Average survival for each condition is normalized to the MMC-free control of that condition.

reaction with glutathione [2]: reduced glutathione reactivity
time dependence of inhibitory activity on the DNA binding activity of RAD51 (human RAD51 protein [4]): time-dependent
DNA binding activity of RAD51 treated with compound prior to washing (human RAD51 protein [5]; 10 μM compound): significantly inactivated
Structure (SMILES): O=C1C(Cl)=C(N2CCOCC2)C(=O)N1c1ccc(Cl)c(Cl)c1 [RI-1, 1-(3,4-Dichlorophenyl)-3-chloro-4-morpholino-1H-pyrrole-2,5-dione, reference compound]
HR repair efficiency ([1]; 20 μM): inhibition of HR
SSA efficiency ([3]; 20 μM): stimulation of SSA

RAD51 inhibitory activity (ssDNA binding), relative (human RAD51 protein [4]; FIG. 6A): intermediate to RI-1 and RI-2
Structure (SMILES): COc1ccc(C2=C(SCCN(C)C)C(=O)N(c3ccc(Cl)c(Cl)c3)C2=O)cc1 [MMP-1-60, 1-(3,4-dichlorophenyl)-3-((2-(dimethylamino)ethyl)thio)-4-(4-methoxyphenyl)-1H-pyrrole-2,5-dione]
cell toxicity with vs. without pre-incubation (stability) (immortalized human cells): comparable cell toxicity

reaction with glutathione [2]: no reactivity toward glutathione
IC50 (human RAD51 protein [4]; RAD51 binding to ssDNA, FP, read-out: IC50 in the standard DNA binding assay): 44.2 µM
time dependence of inhibitory activity on the DNA binding activity of RAD51 (human RAD51 protein [4]): no time-dependent increase
Structure (SMILES): COc1ccc(C2=C(N3CCOCC3)C(=O)N(c3ccc(Cl)c(Cl)c3)C2=O)cc1 [RI-2, 1-(3,4-Dichloro-phenyl)-3-(4-methoxy-phenyl)-4-morpholin-4-yl-pyrrole-2,5-dione]
HR repair efficiency ([1]; 60 μM): very similar effects; also recorded: inhibition of HR
sensitization to cross-linking chemotherapy (MMC) (HEK293 cells): sensitizes human cells to cross-linking chemotherapy
SSA efficiency ([3]; 60 μM): very similar effects; also recorded: stimulation of SSA
DNA binding activity of RAD51 treated with compound prior to washing (human RAD51 protein [5]; concentrations up to 240 μM): no measurable loss of DNA binding activity

Structure (SMILES): O=C1C(I)=C(N2CCOCC2)C(=O)N1c1ccc(Cl)c(Cl)c1 [Compound 9b, 1-(3,4-Dichlorophenyl)-3-iodo-4-morpholino-1H-pyrrole-2,5-dione]
reaction with glutathione [2]: no detectable compound at the first time point measured
